Test [1] deals with Influenza A virus. Description: microbe, parasite or virus in culture. Conditions: H5N1, MDCK, 48 h.
Test [2] concerns Influenza A virus. Conditions: mdck.

Bounds are passed on as bounds.

Experimental findings from ChEMBL document CHEMBL5154759, “Discovery of Aryl Benzoyl Hydrazide Derivatives as Novel Potent Broad-Spectrum Inhibitors of Influenza A Virus RNA-Dependent RNA Polymerase (RdRp)” (J Med Chem, 2022) are described below.

Broadly, the EC50 is the concentration at which the effect is half-maximal. High values mean a need for much substance, low ones an effect from little substance.

As for `O=C(O)c1ccc(C(=O)NNc2c(Br)cccc2Br)cc1`, the EC50 in the test on Influenza A virus [1] was more than 100000 nM.
Still for that read-out and setting: to `CN(C)c1ccc(C(=O)NNc2c(Br)cc(Br)cc2Br)cc1` belongs 230 nM; to `N#Cc1ccc(C(=O)NNc2c(Br)cccc2Br)cc1`, more than 100000 nM.
Same read-out and setting: to `CCc1ccc(C(=O)NNc2c(Br)cccc2Br)cc1` belongs 78 nM; to `CCOc1ccc(C(=O)NNc2c(F)cccc2F)cc1`, 31000 nM.
As to `O=C(NNc1c(Br)cccc1Br)c1ccc2c(c1)OCO2`, the midpoint of the response in the test on Influenza A virus [1], the EC50, lay at 13000 nM.
As to `CN(C)c1ccc(C(=O)NNc2c(F)cccc2F)cc1`, the EC50 in the test with Influenza A virus [1] was more than 100000 nM.
Regarding `CCOc1ccc(C(=O)NNc2c(Br)cc(Br)cc2Br)cc1`, a half-maximal response in the test on Influenza A virus [1] (EC50) required 4200 nM.
The compound `CCOc1ccc(C(=O)NNc2ccc(Br)cc2Br)cc1` returned an EC50 in the test with Influenza A virus [1] of more than 100000 nM.
With `O=C(NNc1c(Br)cccc1Br)c1ccc2ccccc2c1`, it took 1200 nM to reach a half-maximal effect with Influenza A virus [1] (EC50).
With `COc1cccc(C(=O)NNc2c(Br)cccc2Br)c1`, the EC50 in the test with Influenza A virus [1] was more than 100000 nM.
Still for that read-out and setting: as for `CC(C)(C)c1ccc(C(=O)NNc2c(Br)cccc2Br)cc1`, the figure is 37 nM; as for `CCOc1ccc(C(=O)NNc2c(Br)cccc2Br)cc1`, 34 nM; as for `CCOc1ccc(C(=O)NNc2ccc(Br)cc2)cc1`, more than 100000 nM.
Same read-out and setting: to `CCOc1ccc(C(=O)NNc2ccccc2Br)cc1` belongs more than 100000 nM; to `O=C(NNc1c(Br)cccc1Br)c1ccc(O)cc1`, more than 100000 nM.
As for `CC(=O)N[C@H]1[C@H]([C@H](O)[C@H](O)CO)OC(C(=O)O)=C[C@@H]1NC(=N)N` [ZANAMIVIR], the figures for the EC50 in the test with Influenza A virus [1] and in the test on Influenza A virus [2] were 76 nM and 160 nM, respectively.
In the test on Influenza A virus [1], `CCOc1ccc(C(=O)NNc2c(C)cccc2Cl)cc1` gave an EC50 of 100 nM.
Still for that read-out and setting: as for `CCOc1ccc(C(=O)NNc2c(Cl)cccc2Cl)cc1`, the figure is 77 nM.
In turn, `CCCOc1ccc(C(=O)NNc2c(Br)cccc2Br)cc1` yielded an EC50 with Influenza A virus [1] of 23 nM.
As to `CCOc1ccc(C(=O)Nc2c(Br)cccc2Br)cc1`, in the test with Influenza A virus [1], the EC50 was more than 100000 nM.
Compound `O=C(NNc1c(Cl)cccc1Cl)c1cccs1` yielded an EC50 in the test with Influenza A virus [1] of more than 100000 nM.
The same measure, in the same setting: as for `O=C(NNc1c(Br)cccc1Br)c1ccc(B(O)O)cc1`, the figure is more than 100000 nM; as for `CCCc1ccc(C(=O)NNc2c(Cl)cccc2Cl)cc1`, 190 nM.
Still for that read-out and setting: to `CCN(CC)c1ccc(C(=O)NNc2c(Br)cccc2Br)cc1` belongs 9.3 nM; to `O=C(NNc1c(Br)cccc1Br)c1ccc2ncccc2c1`, 24000 nM.
